Experiments:
Format in all cases: physicochemical
[1] = Thermal stability: 4-Epi-Tigecycline and total impurities at ambient conditions and after 7 days at 80° C.
Excerpt: Tigecycline must be available in a physical stable form as well, in order to avoid degradation and as a consequence the building of undesired byproducts.

[2] = Water solubility testing (saturated solution in distilled water, UV-vis at 347 nm)
Method: The finished dosage form contains lyophilized amorphous Tigecycline respectively Tigecycline hydrochloride. Before lyophilizing, Tigecycline respectively Tigecycline hydrochloride is dissolved in water, thus water solubility is an important factor to consider.
A UV-vis Lambda 35 spectrophotometer (Perkin-Elmer) was used (λ=347 nm, 1.0 cm quartz cells). Perkin Elmer® UV Win Lab-5.1 software was used.
A saturated solution of Tigecycline respectively Tigecycline hydrochloride in distilled water was prepared and the suspension was stirred at room temperature for 30 minutes with a stirring speed of 1000 U/min. The suspension was filtrated through a 0.45 μm filter. Finally the resulting solution was diluted 10000-fold and measured against water at a wavelength of 347 nm.

[3] = Conversion into other crystalline or amorphous forms on storing at elevated temperature; conditions: after storing for 7 days at 80° C.
[4] = Water content on storage at defined relative humidity at 25° C.
Method: The water content of crystalline form A of Tigecycline hydrochloride may vary from about 0-6.0% e.g. the water content is 0% when stored at 1.7% relative humidity at 25° C., 2.7% when stored at 42.7% relative humidity at 25° C. and 5.8% when stored at 80% relative humidity at 25° C.

[5] = Storage stability of lyophilized amorphous Tigecycline hydrochloride at room temperature; conditions: stored for about 9 months at room temperature
Method: Moreover crystalline forms A and B of Tigecycline hydrochloride of the present invention show better physical stability than amorphous Tigecycline hydrochloride. For example amorphous Tigecycline hydrochloride was prepared by lyophilization and stored for about 9 months at room temperature. […] Therefore amorphous Tigecycline hydrochloride is not suitable as an intermediate for the formulation of an anti-infective medicament, due to the low stability.

[6] = after storing for 7 days at 80° C.

Q: For CN(C)c1cc(NC(=O)CNC(C)(C)C)c(O)c2c1C[C@H]1C[C@H]3[C@H](N(C)C)C(O)=C(C(N)=O)C(=O)[C@@]3(O)C(O)=C1C2=O.Cl [Form A, Tigecycline hydrochloride], which “change in 4-Epi-Tigecycline content (in words)” value [1, 6] is on record?
A: practically did not change

Q: And the “change in total impurities (in words)” value [1, 6]?
A: low

Q: And the “4-EPI-TIGECYCLINE AT AMBIENT CONDITIONS” value ([1]; listed as A, hydrochloride)?
A: 0.84

Q: And the “TOTAL IMPURITIES AT AMBIENT CONDITIONS” value ([1]; listed as A, hydrochloride)?
A: 1.07

Q: What about the “water solubility compared with the other crystalline forms (in words)” value [2] of the same compound?
A: highest water solubility

Q: And the solubility thermodynamic at 30 min ([2]; water, saturated solution in distilled water, stirred 30 minutes at room temperature, filtered 0.45 μm, read-out: Water solubility, CONCENTRATION)?
A: 503 mg/mL

Q: What about the “conversion into other crystalline or amorphous forms” value [3] of the same compound?
A: did not convert

Q: And the “water content, span of variation” value ([4]; may vary, depending on relative humidity)?
A: 0-6.0%

Q: What about the water content ([4]; stored at 1.7% relative humidity at 25° C.) of the same compound?
A: 0%

Q: And the water content ([4]; stored at 42.7% relative humidity at 25° C.)?
A: 2.7%

Q: What about the water content ([4]; stored at 80% relative humidity at 25° C.) of the same compound?
A: 5.8%

Q: Which “4-EPI-TIGECYCLINE AT AMBIENT CONDITIONS” value ([1]; listed as B, hydrochloride) does the source give for CN(C)c1cc(NC(=O)CNC(C)(C)C)c(O)c2c1C[C@H]1C[C@H]3[C@H](N(C)C)C(O)=C(C(N)=O)C(=O)[C@@]3(O)C(O)=C1C2=O.Cl [Form B, Tigecycline hydrochloride] here?
A: 0.93

Q: And the “TOTAL IMPURITIES AT AMBIENT CONDITIONS” value ([1]; listed as B, hydrochloride)?
A: 1.91

Q: And the “Water solubility, CONCENTRATION” value ([2]; saturated solution in distilled water, stirred 30 minutes at room temperature, filtered 0.45 μm, hydrochloride)?
A: 323 mg/mL

Q: What does the source list for CN(C)c1cc(NC(=O)CNC(C)(C)C)c(O)c2c1C[C@H]1C[C@H]3[C@H](N(C)C)C(O)=C(C(N)=O)C(=O)[C@@]3(O)C(O)=C1C2=O [WO 2006/128150 I, (4S,4aS,5aR,12aS)-4,7-Bis(dimethylamino)-9-[[[(1,1-dimethylethyl)amino]acetyl]amino]-1,4,4a,5,5a,6,11,12a-octahydro-3,10,12,12a-tetrahydroxy-1,11-dioxo-2-naphthacenecarboxamide]?
A: change in total impurities (in words) [1, 6]: tremendous increase; 4-EPI-TIGECYCLINE AT AMBIENT CONDITIONS [1]: 0.36; TOTAL IMPURITIES AT AMBIENT CONDITIONS [1]: 0.75

Q: Which results are given for CN(C)c1cc(NC(=O)CNC(C)(C)C)c(O)c2c1C[C@H]1C[C@H]3[C@H](N(C)C)C(O)=C(C(N)=O)C(=O)[C@@]3(O)C(O)=C1C2=O [WO 2006/128150 II, (4S,4aS,5aR,12aS)-4,7-Bis(dimethylamino)-9-[[[(1,1-dimethylethyl)amino]acetyl]amino]-1,4,4a,5,5a,6,11,12a-octahydro-3,10,12,12a-tetrahydroxy-1,11-dioxo-2-naphthacenecarboxamide]?
A: change in total impurities (in words) [1, 6]: tremendous increase; 4-EPI-TIGECYCLINE AT AMBIENT CONDITIONS [1]: 1.04; TOTAL IMPURITIES AT AMBIENT CONDITIONS [1]: 1.60

Q: For CN(C)c1cc(NC(=O)CNC(C)(C)C)c(O)c2c1C[C@H]1C[C@H]3[C@H](N(C)C)C(O)=C(C(N)=O)C(=O)[C@@]3(O)C(O)=C1C2=O [WO 2006/128150 III, (4S,4aS,5aR,12aS)-4,7-Bis(dimethylamino)-9-[[[(1,1-dimethylethyl)amino]acetyl]amino]-1,4,4a,5,5a,6,11,12a-octahydro-3,10,12,12a-tetrahydroxy-1,11-dioxo-2-naphthacenecarboxamide], which “4-EPI-TIGECYCLINE 7 DAYS AT 80° C.” value ([1]; after storing 7 days at 80° C.) is on record?
A: 2.18

Q: What about the TOTAL IMPURITIES 7 DAYS AT 80° C. ([1]; after storing 7 days at 80° C.) of the same compound?
A: 4.46%

Q: What about the “4-EPI-TIGECYCLINE AT AMBIENT CONDITIONS” value [1] of the same compound?
A: 0.16

Q: And the TOTAL IMPURITIES AT AMBIENT CONDITIONS [1]?
A: 0.16%

Q: And the “Water solubility, CONCENTRATION” value ([2]; saturated solution in distilled water, stirred 30 minutes at room temperature, filtered 0.45 μm)?
A: 174 mg/mL

Q: With CN(C)c1cc(NC(=O)CNC(C)(C)C)c(O)c2c1C[C@H]1C[C@H]3[C@H](N(C)C)C(O)=C(C(N)=O)C(=O)[C@@]3(O)C(O)=C1C2=O [WO 2006/128150 IV, (4S,4aS,5aR,12aS)-4,7-Bis(dimethylamino)-9-[[[(1,1-dimethylethyl)amino]acetyl]amino]-1,4,4a,5,5a,6,11,12a-octahydro-3,10,12,12a-tetrahydroxy-1,11-dioxo-2-naphthacenecarboxamide] as the compound, how does the “4-EPI-TIGECYCLINE AT AMBIENT CONDITIONS” value [1] read?
A: 0.23

Q: What about the “TOTAL IMPURITIES AT AMBIENT CONDITIONS” value [1] of the same compound?
A: 0.40

Q: With CN(C)c1cc(NC(=O)CNC(C)(C)C)c(O)c2c1C[C@H]1C[C@H]3[C@H](N(C)C)C(O)=C(C(N)=O)C(=O)[C@@]3(O)C(O)=C1C2=O [WO 2006/128150 V, (4S,4aS,5aR,12aS)-4,7-Bis(dimethylamino)-9-[[[(1,1-dimethylethyl)amino]acetyl]amino]-1,4,4a,5,5a,6,11,12a-octahydro-3,10,12,12a-tetrahydroxy-1,11-dioxo-2-naphthacenecarboxamide] as the compound, how does the “4-EPI-TIGECYCLINE AT AMBIENT CONDITIONS” value [1] read?
A: <0.05

Q: And the “TOTAL IMPURITIES AT AMBIENT CONDITIONS” value [1]?
A: 0.22

Q: Which results are given for CN(C)c1cc(NC(=O)CNC(C)(C)C)c(O)c2c1C[C@H]1C[C@H]3[C@H](N(C)C)C(O)=C(C(N)=O)C(=O)[C@@]3(O)C(O)=C1C2=O [WO 2007/127292 I, (4S,4aS,5aR,12aS)-4,7-Bis(dimethylamino)-9-[[[(1,1-dimethylethyl)amino]acetyl]amino]-1,4,4a,5,5a,6,11,12a-octahydro-3,10,12,12a-tetrahydroxy-1,11-dioxo-2-naphthacenecarboxamide]?
A: 4-EPI-TIGECYCLINE AT AMBIENT CONDITIONS ([1]; listed as WO2007/127792 I): 0.34; TOTAL IMPURITIES AT AMBIENT CONDITIONS ([1]; listed as WO2007/127792 I): 0.59

Q: Which “4-EPI-TIGECYCLINE AT AMBIENT CONDITIONS” value ([1]; listed as WO2007/127792 II) does the source give for CN(C)c1cc(NC(=O)CNC(C)(C)C)c(O)c2c1C[C@H]1C[C@H]3[C@H](N(C)C)C(O)=C(C(N)=O)C(=O)[C@@]3(O)C(O)=C1C2=O [WO 2007/127292 II, (4S,4aS,5aR,12aS)-4,7-Bis(dimethylamino)-9-[[[(1,1-dimethylethyl)amino]acetyl]amino]-1,4,4a,5,5a,6,11,12a-octahydro-3,10,12,12a-tetrahydroxy-1,11-dioxo-2-naphthacenecarboxamide] here?
A: 0.17

Q: And the “TOTAL IMPURITIES AT AMBIENT CONDITIONS” value ([1]; listed as WO2007/127792 II)?
A: 0.24

Q: Which results are given for CN(C)c1cc(NC(=O)CNC(C)(C)C)c(O)c2c1C[C@H]1C[C@H]3[C@H](N(C)C)C(O)=C(C(N)=O)C(=O)[C@@]3(O)C(O)=C1C2=O.Cl [amorphous Tigecycline hydrochloride, Tigecycline hydrochloride]?
A: 4-Epi-Tigecycline content [5]: 19.56%; total impurities [5]: 21.55%

From patent US8252946B2, “Crystalline forms of tigecycline hydrochloride” (Sandoz AG, priority 2007, dated 2012)
